Assay results: PubChem BioAssay AID844 (SRMLSC, 2007)
Activity calls are given as the source filed them. The rule behind the calls is not given here.

Tested on: MRP1 cells, doxorubicin viability shift, 10 uM compound
Experiment: viability protection against doxorubicin, MRP-1 line – cell-based, doxorubicin EC50 shift, dose response (AID 844)
Details: for EC50: measured here: doxorubicin EC50 with compound

SMILES: Cc1nc(OCc2ccccc2)c2sc3nc4c(cc3c2n1)COC(C)(C)C4
- fold increase in Dox EC50: 1.3 (inactive)
- EC50: 7.04 µM

SMILES: COc1ccccc1NC(=O)CSC(N)=O
- fold increase in Dox EC50: 0.81 (inactive)
- EC50: 4.4 µM

SMILES: CCc1nnc(NC(=O)C(C)N2C(=O)C3C4C=CC(C4)C3C2=O)s1 (stereo not given)
- fold increase in Dox EC50: 1.01 (inactive)
- EC50: 5.44 µM

SMILES: Cc1noc(/C=C/N(C)C)c1S(=O)(=O)N1CCCC(C(=O)N2CCCCC2)C1 (stereo not given)
- fold increase in Dox EC50: 0.74 (inactive)
- EC50: 3.98 µM

SMILES: COc1cc(SC)ccc1C(=O)NCCOc1ccc(Cl)cc1
- fold increase in Dox EC50: 1.36 (inactive)
- EC50: 7.36 µM

SMILES: COc1ccccc1NS(=O)(=O)c1cc(NC(=O)/C=C/c2cccs2)ccc1N1CCOCC1
- fold increase in Dox EC50: 0.81 (inactive)
- EC50: 4.36 µM

SMILES: CCCN1C(=O)/C(=N\OCC(=O)NC23CC4CC(CC(C4)C2)C3)c2ccccc21
- fold increase in Dox EC50: 1.01 (inactive)
- EC50: 5.43 µM

SMILES: Cc1ccc(S(=O)(=O)N2CCN(c3nc(C)c4c(c3C#N)CC(C)(C)OC4)CC2)cc1
- fold increase in Dox EC50: 0.72 (inactive)
- EC50: 3.91 µM

SMILES: COc1cccc(C2C(C(=O)Nc3nc4ccccc4s3)=C(C)NC3=C2C(=O)CC(C)(C)C3)c1OC (stereo not given)
- fold increase in Dox EC50: 0.3 (inactive)
- EC50: 1.6 µM

SMILES: COc1ccc(NC(=O)CCCC2CCCCC2)cc1S(=O)(=O)N1CCCCC1
- fold increase in Dox EC50: 1.68
- EC50: 9.05 µM

SMILES: Cc1nnc(NC(=O)C(C)Oc2ccc3c(C)cc(=O)oc3c2)s1 (stereo not given)
- fold increase in Dox EC50: 1.29 (inactive)
- EC50: 6.99 µM

SMILES: COc1cc(/C=C(\C#N)c2ccccn2)ccc1OCc1ccccc1Cl
- fold increase in Dox EC50: 1.1 (inactive)
- EC50: 5.95 µM

SMILES: O=C(NCCc1ccccc1)C(=O)c1c(-c2ccccc2)cc2ccccn12
- fold increase in Dox EC50: 1.08 (inactive)
- EC50: 5.84 µM

SMILES: O=C1CC(c2nc3ccccc3[nH]2)CN1c1cccc(C(F)(F)F)c1 (stereo not given)
- fold increase in Dox EC50: 1.24 (inactive)
- EC50: 6.7 µM

SMILES: O=C(CSc1nccn1-c1cccc(Cl)c1)Nc1ccc2c(c1)OCCO2
- fold increase in Dox EC50: 1.22 (inactive)
- EC50: 6.58 µM

SMILES: O=C(CSCc1ccc(Cl)cc1)N1CCN(Cc2ccc3c(c2)OCO3)CC1
- fold increase in Dox EC50: 0.77 (inactive)
- EC50: 4.18 µM

SMILES: CCOc1ccc(Cn2nnc(C(=O)NCCc3ccc(Cl)cc3)c2N)cc1
- fold increase in Dox EC50: 1.6
- EC50: 8.64 µM

SMILES: O=C1[C@@H]2C(Cc3ccc(O)cc3)NC3(C(=O)Nc4ccc(F)cc43)[C@@H]2C(=O)N1c1ccc(F)cc1 (stereo not given in full)
- fold increase in Dox EC50: 1.39 (inactive)
- EC50: 7.52 µM

SMILES: CC(C)CCOc1ncnc2c1sc1nc3c(cc12)CSC(C)(C)C3
- fold increase in Dox EC50: 0.51 (inactive)
- EC50: 2.76 µM

SMILES: CCOC(=O)c1csc(NC(=O)c2ccccc2)n1
- fold increase in Dox EC50: 0.86 (inactive)
- EC50: 4.65 µM

SMILES: O=C(Nc1ccn(Cc2ccccc2F)n1)c1ccc(COc2cc(Cl)ccc2Cl)o1
- fold increase in Dox EC50: 0.91 (inactive)
- EC50: 4.94 µM

SMILES: c1ccc2c(-c3nc(C4CCCCC4)no3)cc(-c3ccncc3)nc2c1
- fold increase in Dox EC50: 0.62 (inactive)
- EC50: 3.32 µM

SMILES: COC(=O)N/N=C/c1ccc(-c2cc(Cl)cc(Cl)c2)o1
- fold increase in Dox EC50: 1.06 (inactive)
- EC50: 5.71 µM

SMILES: N#Cc1c(-c2ccccc2)nc(SCC(=O)N(c2ccccc2)c2ccccc2)[nH]c1=O
- fold increase in Dox EC50: 1.08 (inactive)
- EC50: 5.86 µM

SMILES: O=C(NNC(=O)c1cccnc1)Nc1cccc2ccccc12
- fold increase in Dox EC50: 0.66 (inactive)
- EC50: 3.57 µM

SMILES: O=C(NCc1ccccn1)c1cc(-c2ccc(-c3ccccc3)cc2)nc2ccccc12
- fold increase in Dox EC50: 0.57 (inactive)
- EC50: 3.1 µM

SMILES: O=C(Nc1cccnc1)C1CC(c2ccc(Cl)c(Cl)c2)=NO1 (stereo not given)
- fold increase in Dox EC50: 1.32 (inactive)
- EC50: 7.13 µM

SMILES: Cc1ccc(/C=C2\SC(=S)N(CCCC(=O)Nc3ccccn3)C2=O)cc1
- fold increase in Dox EC50: 0.82 (inactive)
- EC50: 4.44 µM

SMILES: Cc1nnc(NC(=O)c2ccccc2Br)s1
- fold increase in Dox EC50: 1.05 (inactive)
- EC50: 5.69 µM

SMILES: O=C(NNC1=C(C(=O)C(F)(F)F)CCC1)c1ccc(Cl)cc1
- fold increase in Dox EC50: 0.87 (inactive)
- EC50: 4.7 µM

SMILES: CC(SC1=NCCS1)C(=O)Nc1nnc(-c2ccc(Br)cc2)s1 (stereo not given)
- fold increase in Dox EC50: 0.97 (inactive)
- EC50: 5.24 µM

SMILES: CC1(C)O[C@@H]2C[C@H]3[C@@H]4CCC5=CC(=O)C=C[C@]5(C)[C@@]4(F)[C@@H](O)C[C@]3(C)[C@]2(C(=O)CO)O1
- fold increase in Dox EC50: 0.62 (inactive)
- EC50: 3.33 µM

SMILES: Cc1cc(C(=O)N/N=C/c2cc([N+](=O)[O-])cc(C)c2O)n[nH]1
- fold increase in Dox EC50: 0.53 (inactive)
- EC50: 2.87 µM

SMILES: O=C(CC(NC(=O)C(F)(F)F)c1ccccc1)Nc1nnc(CCc2ccccc2)s1 (stereo not given)
- fold increase in Dox EC50: 1.85
- EC50: 9.97 µM

SMILES: COC(=O)/C(=C/Nc1ccc(O)cc1)[N+](=O)[O-]
- fold increase in Dox EC50: 0.21 (inactive)
- EC50: 1.12 µM

SMILES: CCC(Sc1nc(-c2ccccc2)c(C#N)c(=O)[nH]1)C(=O)Nc1nnc(C)s1 (stereo not given)
- fold increase in Dox EC50: 1.82
- EC50: 9.85 µM

SMILES: Cc1ccc(/C=C2\SC(=S)N(CCCC(=O)Nc3nccs3)C2=O)cc1
- fold increase in Dox EC50: 0.3 (inactive)
- EC50: 1.64 µM

SMILES: CCC(=O)c1ccc(N2CCOCC2)c(F)c1
- fold increase in Dox EC50: 1.32 (inactive)
- EC50: 7.12 µM

SMILES: CC(NC(=O)c1ccc(Br)cc1)c1ccc2c(c1)CCCC2 (stereo not given)
- fold increase in Dox EC50: 1.36 (inactive)
- EC50: 7.33 µM

SMILES: N#Cc1c(-c2cccs2)nc(SCC(=O)c2cccs2)[nH]c1=O
- fold increase in Dox EC50: 1.12 (inactive)
- EC50: 6.05 µM

SMILES: Cc1cc(/C=C2\NC(=O)N(Cc3ccc(Cl)cc3)C2=O)c(C)n1C
- fold increase in Dox EC50: 1.1 (inactive)
- EC50: 5.93 µM

SMILES: Cc1ccc(C2=CC(C)(c3ccc(C)cc3)Nc3nc(C(F)(F)F)nn32)cc1 (stereo not given)
- fold increase in Dox EC50: 0.94 (inactive)
- EC50: 5.1 µM

SMILES: CCCOC(=S)NC(=O)c1sc2ccccc2c1Cl
- fold increase in Dox EC50: 1.25 (inactive)
- EC50: 6.75 µM

SMILES: O=C(Nc1ccc(O)cc1)C1CCCO1 (stereo not given)
- fold increase in Dox EC50: 0.91 (inactive)
- EC50: 4.92 µM

SMILES: Cc1nnc(NC(=O)COc2ccccc2)s1
- fold increase in Dox EC50: 1.25 (inactive)
- EC50: 6.73 µM

SMILES: Fc1cccc(-c2cc3nc(-c4ccccc4)cc(N4CCC5(CC4)OCCO5)n3n2)c1
- fold increase in Dox EC50: 0.56 (inactive)
- EC50: 3.04 µM

SMILES: COCCOC(=O)c1c(C)oc2ccc(OCC=C(C)C)cc12
- fold increase in Dox EC50: 0.5 (inactive)
- EC50: 2.69 µM

SMILES: Cc1ccc(C(c2sc3ncnn3c2O)N2CCC(C)CC2)cc1 (stereo not given)
- fold increase in Dox EC50: 0.72 (inactive)
- EC50: 3.87 µM

SMILES: O=C1CC(N2CCN(c3nc4ccccc4s3)CC2)C(=O)N1c1ccc(F)cc1 (stereo not given)
- fold increase in Dox EC50: 1.18 (inactive)
- EC50: 6.38 µM

SMILES: Cc1nn(Cc2c(F)c(F)c(F)c(F)c2F)c(C)c1NC(=O)c1ccc(COc2ccc(F)cc2)o1
- fold increase in Dox EC50: 1 (inactive)
- EC50: 5.42 µM

SMILES: O=C(Nc1cccc([N+](=O)[O-])c1)c1[nH]ncc1Cl
- fold increase in Dox EC50: 0.54 (inactive)
- EC50: 2.89 µM

SMILES: Cc1ccc(CC2S/C(=C(/C#N)C(=O)N3CCOCC3)N(c3ccccc3)C2=O)cc1 (stereo not given)
- fold increase in Dox EC50: 1.18 (inactive)
- EC50: 6.38 µM

SMILES: Cc1cccc(NC(=O)/C(=C\c2ccc([N+](=O)[O-])o2)NC(=O)c2ccc(Cl)cc2)c1
- fold increase in Dox EC50: 0.75 (inactive)
- EC50: 4.04 µM

SMILES: O=C(COC(=O)C1CC2C=CC1C2)Nc1ccc2c(c1)OC(F)(F)O2 (stereo not given)
- fold increase in Dox EC50: 1.21 (inactive)
- EC50: 6.54 µM

SMILES: CCOc1ccccc1N(C(=O)c1snc(C(N)=O)c1N)C(C(=O)NCCC(C)C)c1ccco1 (stereo not given)
- fold increase in Dox EC50: 0.3 (inactive)
- EC50: 1.62 µM

SMILES: CCCOc1ccc(CSc2ncn[nH]2)cc1
- fold increase in Dox EC50: 0.89 (inactive)
- EC50: 4.79 µM

SMILES: CCCCC1S/C(=N/N=C/c2ccc(OC)cc2)N(Cc2ccc(OC)cc2)C1=O (stereo not given)
- fold increase in Dox EC50: 1.18 (inactive)
- EC50: 6.34 µM

SMILES: CCc1nnc(NC(=O)c2ccc(-c3ccc(Cl)cc3)o2)s1
- fold increase in Dox EC50: 1.19 (inactive)
- EC50: 6.41 µM

SMILES: CC(/C=C1\SC(=S)N(CCCC(=O)Nc2ccc(C(=O)O)cc2)C1=O)=C\c1ccccc1
- fold increase in Dox EC50: 0.55 (inactive)
- EC50: 2.98 µM

SMILES: CCc1nnc(NC(=O)C2CCCN2S(=O)(=O)c2ccc(F)cc2)s1 (stereo not given)
- fold increase in Dox EC50: 1.03 (inactive)
- EC50: 5.54 µM

SMILES: Cc1ccccc1Cn1nc(C)c(NC(=O)c2noc3c2CCc2ccccc2-3)c1C
- fold increase in Dox EC50: 1.96
- EC50: 10.6 µM

SMILES: COc1cccc(/C=N/NC(=O)CNC(=O)c2ccc3c(c2)OCCO3)c1O
- fold increase in Dox EC50: 0.5 (inactive)
- EC50: 2.71 µM

SMILES: Cc1ccc(N2C(=O)C3C(c4ccccc4)(C2=O)C3(c2ccccc2)c2ccccc2)cc1 (stereo not given)
- fold increase in Dox EC50: 0.22 (inactive)
- EC50: 1.16 µM

SMILES: COC(=O)C1C(=O)c2c([nH]c(C(=O)OC3CCCCC3)c2C)CC1C (stereo not given)
- fold increase in Dox EC50: 0.69 (inactive)
- EC50: 3.74 µM

SMILES: CSc1ncc(Cl)c(C(=O)Nc2nnc(SC)s2)n1
- fold increase in Dox EC50: 1.12 (inactive)
- EC50: 6.07 µM

SMILES: COc1cccc(-c2csc(NC(=O)Oc3ccccc3)n2)c1
- fold increase in Dox EC50: 1.52
- EC50: 8.23 µM

SMILES: N#Cc1c(-c2ccco2)nc(SCC(=O)Nc2cccc(Cl)c2)[nH]c1=O
- fold increase in Dox EC50: 1.33 (inactive)
- EC50: 7.17 µM

SMILES: CCC(Sc1nccn1C)C(=O)Nc1nnc(C)s1 (stereo not given)
- fold increase in Dox EC50: 1.01 (inactive)
- EC50: 5.43 µM

SMILES: CCn1c(COc2ccc(Cl)cc2)nnc1SC1CCc2ccccc2C1=O (stereo not given)
- fold increase in Dox EC50: 0.71 (inactive)
- EC50: 3.81 µM

SMILES: Cn1nnc(NC(=O)COc2ccc(C3CCCCC3)cc2)n1
- fold increase in Dox EC50: 1.49
- EC50: 8.05 µM

SMILES: Cc1cccc(C)c1N=Cc1c(O)n(-c2nccs2)c(=O)c2ccccc12
- fold increase in Dox EC50: 0.6 (inactive)
- EC50: 3.22 µM

SMILES: CCN(Cc1ccccc1)C(=O)CSc1nc(C)cc(C)c1C#N
- fold increase in Dox EC50: 0.59 (inactive)
- EC50: 3.19 µM

SMILES: CCc1c(C)sc(NC(=O)c2cccs2)c1C(=O)OC(C)C
- fold increase in Dox EC50: 0.42 (inactive)
- EC50: 2.26 µM

SMILES: Cc1ccc(-c2nc(C3CCCN(S(=O)(=O)c4ccc(C)cc4)C3)no2)cc1 (stereo not given)
- fold increase in Dox EC50: 1.08 (inactive)
- EC50: 5.85 µM

SMILES: NC1=NC(=O)/C(=C/c2cn(CCC(=O)O)nc2-c2ccc(Cl)cc2)S1
- fold increase in Dox EC50: 0.93 (inactive)
- EC50: 5.01 µM
